From patent publication US20230085307A1, “PYRIDAZINONE COMPOUND AND HERBICIDE” (NISSAN CHEMICAL CORPORATION, priority 2019, published 2023)

Key:
[1] = test system: blackgrass; experiment: Test Example 4: herbicidal effect by soil treatment (Table 19, symbol J); type: in vivo, blackgrass (Alopecurus myosuroides); conditions: amount of applied herbicide 320 g/ha
Outline: (§1)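 Soil-surface application: an emulsion agent diluted with water to the predetermined dose is sprayed uniformly over seeds lying under roughly 1.5 cm of sterilized diluvial soil. Boxes stay in a greenhouse at 25° C. to 30° C. Three weeks later, each species is graded on previously defined criteria.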

[2] = test system: chickweed; experiment: Test Example 5: herbicidal effect by foliage application, plastic box (Table 20, symbol P); type: in vivo, common chickweed (Stellaria media); conditions: foliage application, 320 g/ha, three weeks after application
Outline: (§2)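 Sow seeds spot-wise in sterilized diluvial soil; cover with ~1.5 cm soil. Grow 14 days in greenhouse, 25° C. to 30° C. Spray foliage with emulsion diluted to predetermined amount. Rate effect after 3 weeks.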

[3] = test system: barnyard grass; experiment: Test Example 5: herbicidal effect by foliage application, plastic box (Table 20, symbol H); type: in vivo, barnyard grass (Echinochloa crus-galli); conditions: foliage application, 320 g/ha, three weeks after application
Outline: as §2

[4] = test system: velvetleaf; experiment: Test Example 4: herbicidal effect by soil treatment (Table 19, symbol M); type: in vivo, velvetleaf (Abutilon theophrasti); conditions: amount of applied herbicide 320 g/ha
Outline: as §1

[5] = test system: rice flat sedge; experiment: Test Example 3: herbicidal effect by foliage application, Wagner pot (Table 18, symbol E); type: in vivo, rice flat sedge (Cyperus iria); conditions: 320 g/ha
Outline: (§3)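 Plants were sown in alluvial soil held under 0.1–0.5 cm standing water and grown 14 days in a greenhouse at 25–30 °C. An emulsifiable formulation, water-diluted to the set dose, was then sprayed onto the foliage, and effects were scored three weeks later using previously defined criteria.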

[6] = test system: southern crabgrass; experiment: Test Example 4: herbicidal effect by soil treatment (Table 19, symbol F); type: in vivo, southern crabgrass (Digitaria ciliaris); conditions: amount of applied herbicide 320 g/ha
Outline: as §1

[7] = test system: Italian ryegrass; experiment: Test Example 5: herbicidal effect by foliage application, plastic box (Table 20, symbol K); type: in vivo, Italian ryegrass (Lolium multiflorum); conditions: foliage application, 320 g/ha, three weeks after application
Outline: as §2

[8] = test system: green foxtail; experiment: Test Example 5: herbicidal effect by foliage application, plastic box (Table 20, symbol G); type: in vivo, green foxtail (Setaria viridis); conditions: foliage application, 320 g/ha, three weeks after application
Outline: as §2

[9] = test system: redroot pigweed; experiment: Test Example 5: herbicidal effect by foliage application, plastic box (Table 20, symbol N); type: in vivo, redroot pigweed (Amaranthus retroflexus); conditions: foliage application, 320 g/ha, three weeks after application
Outline: as §2

[10] = test system: persian speedwell; experiment: Test Example 5: herbicidal effect by foliage application, plastic box (Table 20, symbol R); type: in vivo, Persian speedwell (Veronica persica); conditions: foliage application, 320 g/ha, three weeks after application
Outline: as §2

[11] = test system: velvetleaf; experiment: Test Example 5: herbicidal effect by foliage application, plastic box (Table 20, symbol M); type: in vivo, velvetleaf (Abutilon theophrasti); conditions: foliage application, 320 g/ha, three weeks after application
Outline: as §2

[12] = test system: barnyard grass; experiment: Test Example 4: herbicidal effect by soil treatment (Table 19, symbol H); type: in vivo, barnyard grass (Echinochloa crus-galli); conditions: amount of applied herbicide 320 g/ha
Outline: as §1

[13] = test system: chickweed; experiment: Test Example 4: herbicidal effect by soil treatment (Table 19, symbol P); type: in vivo, common chickweed (Stellaria media); conditions: amount of applied herbicide 320 g/ha
Outline: as §1

[14] = test system: barnyard grass; experiment: Test Example 3: herbicidal effect by foliage application, Wagner pot (Table 18, symbol H); type: in vivo, barnyard grass (Echinochloa crus-galli); conditions: 320 g/ha
Outline: as §3

[15] = test system: southern crabgrass; experiment: Test Example 5: herbicidal effect by foliage application, plastic box (Table 20, symbol F); type: in vivo, southern crabgrass (Digitaria ciliaris); conditions: foliage application, 320 g/ha, three weeks after application
Outline: as §2

[16] = test system: wild oat; experiment: Test Example 4: herbicidal effect by soil treatment (Table 19, symbol I); type: in vivo, wild oat (Avena fatua); conditions: amount of applied herbicide 320 g/ha
Outline: as §1

[17] = test system: windgrass; experiment: Test Example 5: herbicidal effect by foliage application, plastic box (Table 20, symbol L); type: in vivo, windgrass (Apera spica-venti); conditions: foliage application, 320 g/ha, three weeks after application
Outline: as §2

[18] = test system: lambsquarters; experiment: Test Example 4: herbicidal effect by soil treatment (Table 19, symbol O); type: in vivo, lambsquarters (Chenopodium album); conditions: amount of applied herbicide 320 g/ha
Outline: as §1

[19] = test system: blackgrass; experiment: Test Example 5: herbicidal effect by foliage application, plastic box (Table 20, symbol J); type: in vivo, blackgrass (Alopecurus myosuroides); conditions: foliage application, 320 g/ha, three weeks after application
Outline: as §2

[20] = test system: redroot pigweed; experiment: Test Example 4: herbicidal effect by soil treatment (Table 19, symbol N); type: in vivo, redroot pigweed (Amaranthus retroflexus); conditions: amount of applied herbicide 320 g/ha
Outline: as §1

[21] = test system: Italian ryegrass; experiment: Test Example 4: herbicidal effect by soil treatment (Table 19, symbol K); type: in vivo, Italian ryegrass (Lolium multiflorum); conditions: amount of applied herbicide 320 g/ha
Outline: as §1

[22] = test system: persian speedwell; experiment: Test Example 4: herbicidal effect by soil treatment (Table 19, symbol R); type: in vivo, Persian speedwell (Veronica persica); conditions: amount of applied herbicide 320 g/ha
Outline: as §1

[23] = test system: lambsquarters; experiment: Test Example 5: herbicidal effect by foliage application, plastic box (Table 20, symbol O); type: in vivo, lambsquarters (Chenopodium album); conditions: foliage application, 320 g/ha, three weeks after application
Outline: as §2

[24] = test system: windgrass; experiment: Test Example 4: herbicidal effect by soil treatment (Table 19, symbol L); type: in vivo, windgrass (Apera spica-venti); conditions: amount of applied herbicide 320 g/ha
Outline: as §1

[25] = test system: Chinese sprangletop; experiment: Test Example 3: herbicidal effect by foliage application, Wagner pot (Table 18, symbol D); type: in vivo, chinese sprangletop (Leptochloa chinensis); conditions: 320 g/ha
Outline: as §3

[26] = test system: wild oat; experiment: Test Example 5: herbicidal effect by foliage application, plastic box (Table 20, symbol I); type: in vivo, wild oat (Avena fatua); conditions: foliage application, 320 g/ha, three weeks after application
Outline: as §2

What does the source list for `CSc1ccccc1-c1sc2ccccc2c1-c1c(O)c(C)nn(C)c1=O` [1-034]?
herbicidal effect rating, J: blackgrass [1]: 0 (Herbicidal rate of 5% or less (almost no effect)); herbicidal effect grade, P: chickweed [2]: 4 (Herbicidal rate of 70% or more and less than 90%); herbicidal effect grade, H: barnyard grass [3]: 0 (Herbicidal rate of 5% or less (almost no effect)); herbicidal effect rating, M: velvetleaf [4]: 0 (Herbicidal rate of 5% or less (almost no effect)); herbicidal effect on E (rice flat sedge), rating 0-5 [5]: 3 (Herbicidal rate of 40% or more and less than 70%); herbicidal effect rating, F: southern crabgrass [6]: 0 (Herbicidal rate of 5% or less (almost no effect)); herbicidal effect grade, K: Italian ryegrass [7]: 0 (Herbicidal rate of 5% or less (almost no effect)); herbicidal effect grade, G: green foxtail [8]: 0 (Herbicidal rate of 5% or less (almost no effect)); herbicidal effect grade, N: redroot pigweed [9]: 0 (Herbicidal rate of 5% or less (almost no effect)); herbicidal effect grade, R: persian speedwell [10]: 1 (Herbicidal rate of 5% or more and less than 20%); herbicidal effect grade, M: velvetleaf [11]: 0 (Herbicidal rate of 5% or less (almost no effect)); herbicidal effect rating, H: barnyard grass [12]: 0 (Herbicidal rate of 5% or less (almost no effect)); herbicidal effect rating, P: chickweed [13]: 3 (Herbicidal rate of 40% or more and less than 70%); herbicidal effect on H (barnyard grass), rating 0-5 [14]: 1 (Herbicidal rate of 5% or more and less than 20%); herbicidal effect grade, F: southern crabgrass [15]: 0 (Herbicidal rate of 5% or less (almost no effect)); herbicidal effect rating, I: wild oat [16]: 0 (Herbicidal rate of 5% or less (almost no effect)); herbicidal effect grade, L: windgrass [17]: 0 (Herbicidal rate of 5% or less (almost no effect)); herbicidal effect rating, O: lambsquarters [18]: 0 (Herbicidal rate of 5% or less (almost no effect)); herbicidal effect grade, J: blackgrass [19]: 0 (Herbicidal rate of 5% or less (almost no effect)); herbicidal effect rating, N: redroot pigweed [20]: 0 (Herbicidal rate of 5% or less (almost no effect)); herbicidal effect rating, K: Italian ryegrass [21]: 0 (Herbicidal rate of 5% or less (almost no effect)); herbicidal effect rating, R: persian speedwell [22]: 0 (Herbicidal rate of 5% or less (almost no effect)); herbicidal effect grade, O: lambsquarters [23]: 0 (Herbicidal rate of 5% or less (almost no effect)); herbicidal effect rating, L: windgrass [24]: 0 (Herbicidal rate of 5% or less (almost no effect)); herbicidal effect on D (Chinese sprangletop), rating 0-5 [25]: 0 (Herbicidal rate of 5% or less (almost no effect)); herbicidal effect grade, I: wild oat [26]: 2 (Herbicidal rate of 20% or more and less than 40%)
